Laboratory results published in the supplement of paper PMC10307832.

Assays:
Experiment in all cases: relative viability (nuclei count vs DMSO), 5 days (fraction); higher = more cells survive
Tosedostat + Luminespib = compound: CC(C)C[C@@H](C(=O)N[C@H](C(=O)OC1CCCC1)c1ccccc1)[C@H](O)C(=O)NO [Tosedostat] + CCNC(=O)c1noc(-c2cc(C(C)C)c(O)cc2O)c1-c1ccc(CN2CCOCC2)cc1 [Luminespib] (partner 0.01 µM)
Method in brief: (§1)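 Dosing by pin tool came one day after lung cancer cell lines were seeded in 1536-well plates, using either one drug or a fixed anchor-drug dose plus five library-drug doses (not always all listed) in √10 steps. After 5 days, nuclei were counted on 4× images. Relative viability is treated-well nuclei count divided by vehicle-well nuclei count, and values are medians of duplicate plates.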

Tosedostat + Crizotinib = compound: CC(C)C[C@@H](C(=O)N[C@H](C(=O)OC1CCCC1)c1ccccc1)[C@H](O)C(=O)NO [Tosedostat] + C[C@@H](Oc1cc(-c2cnn(C3CCNCC3)c2)cnc1N)c1c(Cl)ccc(F)c1Cl [Crizotinib] (partner 1 µM)
Method in brief: as §1

Tosedostat + Pemetrexed = compound: CC(C)C[C@@H](C(=O)N[C@H](C(=O)OC1CCCC1)c1ccccc1)[C@H](O)C(=O)NO [Tosedostat] + Nc1nc2[nH]cc(CCc3ccc(C(=O)N[C@@H](CCC(=O)O)C(=O)O)cc3)c2c(=O)[nH]1 [Pemetrexed] (partner 0.2 µM)
Method in brief: as §1

[1] = compound: CC1=NN=C(O1)C2=NN=C(C=C2)N3CCC(CC3)OC4=C(C=CC(=C4)F)Cl + COc1cccc2cc(-c3nc([C@H]4CC[C@H](C(=O)O)CC4)n4ncnc(N)c34)[nH]c12 [OSI-027] (partner 0.5 µM)
Method in brief: as §1

Cell Line	relative viability (Tosedostat + Luminespib; first compound 0.02 µM)	relative viability (Tosedostat + Luminespib; first compound 0.06325 µM)	relative viability (Tosedostat + Luminespib; first compound 0.2 µM)	relative viability (Tosedostat + Luminespib; first compound 0.6325 µM)	relative viability (Tosedostat + Luminespib; first compound 2 µM)	relative viability (Tosedostat + Crizotinib; first compound 0.02 µM)	relative viability (Tosedostat + Crizotinib; first compound 0.06325 µM)	relative viability (Tosedostat + Crizotinib; first compound 0.2 µM)	relative viability (Tosedostat + Crizotinib; first compound 0.6325 µM)	relative viability (Tosedostat + Crizotinib; first compound 2 µM)	relative viability (Tosedostat + Pemetrexed; first compound 0.02 µM)	relative viability (Tosedostat + Pemetrexed; first compound 0.06325 µM)	relative viability (Tosedostat + Pemetrexed; first compound 0.2 µM)	relative viability (Tosedostat + Pemetrexed; first compound 0.6325 µM)	relative viability (Tosedostat + Pemetrexed; first compound 2 µM)	relative viability ([1]; first compound 0.253 µM)	relative viability ([1]; first compound 0.8 µM)	relative viability ([1]; first compound 2.53 µM)	relative viability ([1]; first compound 8 µM)
201T	0.969	1.2	1.14	1.24	1.18	1.04	1.05	1.08	1.11	1.09	0.336	0.335	0.393	0.355	0.307	0.383	0.536	0.583	0.504
A549	–	–	–	–	–	0.869	0.726	0.702	0.652	0.683	–	–	–	–	–	–	–	–	–
A-427	0.882	0.739	1.01	0.919	1.08	0.972	0.847	0.87	0.916	0.895	0.97	1.02	0.936	0.946	0.852	0.498	–	0.428	0.404
ABC-1	0.622	0.706	0.596	0.647	0.398	1.15	0.868	1.02	0.83	0.631	–	–	–	–	–	0.244	0.326	0.411	0.47
BEN	0.467	0.387	0.264	0.435	0.248	0.894	0.875	0.818	1.02	0.956	0.845	0.893	0.997	1.2	1.06	0.309	0.28	0.309	0.318
CAL-12T	0.364	0.304	0.834	0.713	0.353	0.702	0.594	0.727	0.533	0.661	1.19	1.3	1.24	1.26	1.02	0.54	0.705	0.668	0.513
COR-L23	0.792	0.729	0.687	0.698	0.504	0.86	0.554	0.642	0.604	0.524	0.2	0.214	0.202	0.194	0.172	0.654	0.558	0.586	0.389
COR-L 105	0.693	0.726	0.835	0.733	0.693	0.865	0.751	0.827	0.493	0.548	1.16	0.915	1.01	0.857	0.894	0.702	0.687	0.908	0.769
Calu-6	–	–	–	–	–	0.924	0.755	0.762	0.682	0.415	–	–	–	–	–	–	–	–	–
ChaGo-K-1	0.648	0.598	0.836	0.572	0.491	1.05	1.03	1.14	1.01	0.84	0.269	0.257	0.275	0.267	0.275	0.506	0.422	0.597	0.398
EBC-1	–	–	–	–	–	0.197	0.185	0.197	0.179	0.153	–	–	–	–	–	–	–	–	–
EKVX	0.796	0.884	0.853	0.784	0.806	0.763	0.842	0.921	0.807	0.789	0.462	0.427	0.547	0.462	0.477	0.481	0.465	0.362	0.423
EMC-BAC-2	1.26	1.06	1.17	1.15	0.986	0.847	0.724	0.742	0.703	0.536	0.453	0.463	0.582	0.626	0.655	0.441	0.382	0.354	0.417
EPLC-272H	0.246	0.265	0.278	0.285	0.225	0.915	0.877	0.635	0.613	0.25	0.47	0.269	0.306	0.241	0.142	0.283	0.248	0.26	0.298
H3255	1.02	0.807	0.906	0.683	0.75	0.976	0.846	0.812	0.669	0.827	0.56	0.628	0.625	0.611	0.638	0.578	0.581	0.545	0.511
HARA	0.683	0.554	0.766	0.481	0.779	1.12	0.912	0.991	0.997	1.14	0.212	0.248	0.222	0.203	0.25	0.404	0.206	0.359	0.348
HCC-15	0.408	0.269	0.78	0.211	0.308	0.939	0.836	0.834	0.777	0.635	0.234	0.221	0.213	0.243	0.249	0.605	0.573	0.532	0.522
HCC-44	1.29	0.987	0.985	0.957	0.834	0.861	0.755	0.759	0.741	0.492	0.69	0.68	0.679	0.642	0.639	0.391	0.53	0.344	0.389
HCC-78	–	–	–	–	–	0.298	0.337	0.324	0.371	0.391	0.923	1.02	0.838	0.895	0.922	0.414	0.369	0.348	0.335
HCC-366	–	–	–	–	–	0.681	0.532	0.432	0.465	0.325	0.194	0.183	0.285	0.351	0.317	0.32	0.399	0.393	0.407
